Experimental data reported in patent US20240270821A1, “GIP/GLP1/GCG TRI-RECEPTOR AGONISTS AND USES THEREOF” (priority 2023, published 2024).
Where two headings read alike, the source gives them in different places. Starred links: 1 amine or outer side, 2 acyl side, 3 side chain; linkers in the order of their positions; H or OH if unused. Non-standard residues stand in square brackets, D forms with d. Residues, ends and D or L forms follow the SMILES beside them. Groups on a side chain read outwards from the residue. No end group written: not given here. *: point of attachment. C18 diacid = O=C(O)CCCCCCCCCCCCCCCCC(=O)*; αMePhe(2-F) = C[C@](N)(Cc1ccccc1F)C(=O)O; γGlu = O=C(O)[C@H](CCC(=O)[*:2])N[*:1]; αMe4Pal = C[C@](N)(Cc1ccncc1)C(=O)O; αMeY = C[C@](N)(Cc1ccc(O)cc1)C(=O)O; Hyp = O=C(O)[C@@H]1C[C@@H](O)CN1; 4Pal = N[C@@H](Cc1ccncc1)C(=O)O; αMeL = CC(C)C[C@](C)(N)C(=O)O; αMeS = C[C@](N)(CO)C(=O)O; Orn = NCCC[C@H](N)C(=O)O; AEEA = NCCOCCOCC(=O)O; Aib = CC(C)(N)C(=O)O

Columns and labels:
Assay type in all cases: cell-based
hGcgR = hGcgR (Homo sapiens, UniProt P47871); assay: Functional cAMP activation in the presence of 0.1% casein (no HSA); details: read-out: Relative cAMP EC50, hGcgR;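 further: intracellular cAMP rise after 30 min at 37 °C, read by HTRF against a cAMP standard curve, scaled from buffer only (0%) to maximal control ligand response (100%)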
hGLP-1R [1] = target: T1, hGLP-1R (Homo sapiens, UniProt P43220); assay: as above; details: read-out: Relative cAMP EC50, hGLP-1R;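 further: intracellular cAMP rise after 30 min at 37 °C read by HTRF, normalized between buffer only (0%) and maximal control ligand (100%), four-parameter variable-slope fit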
human GcgR = human GcgR (Homo sapiens, UniProt P47871); assay: Functional cAMP activity in the presence of 1% HSA; details: read-out: cAMP Rel EC50, hGcgR
hGIPR [2] = target: T2, hGIPR (Homo sapiens, UniProt P48546); assay: Functional cAMP activity in the presence of 1% HSA; details: read-out: cAMP Rel EC50, hGIPR
T2 sequence (P48546 22-466): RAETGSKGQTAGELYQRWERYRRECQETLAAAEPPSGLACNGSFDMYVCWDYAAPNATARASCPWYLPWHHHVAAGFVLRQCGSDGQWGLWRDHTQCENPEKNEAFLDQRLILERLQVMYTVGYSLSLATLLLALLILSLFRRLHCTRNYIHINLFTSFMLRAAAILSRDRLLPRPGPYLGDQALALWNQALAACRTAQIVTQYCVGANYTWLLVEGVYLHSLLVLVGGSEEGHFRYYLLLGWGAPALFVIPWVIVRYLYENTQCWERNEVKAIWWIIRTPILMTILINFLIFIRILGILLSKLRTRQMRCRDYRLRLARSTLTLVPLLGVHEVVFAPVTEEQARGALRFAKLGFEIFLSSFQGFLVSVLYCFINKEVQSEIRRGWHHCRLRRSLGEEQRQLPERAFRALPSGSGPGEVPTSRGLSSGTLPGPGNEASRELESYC

hGLP-1R [3] = target: T1, hGLP-1R; assay: Functional cAMP activity in the presence of 1% HSA; details: read-out: cAMP Rel EC50, hGLP-1R
hGIPR [4] = target: T2, hGIPR; assay: Functional cAMP activation in the presence of 0.1% casein (no HSA); details: read-out: Relative cAMP EC50, hGIPR;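 on Relative cAMP EC50, hGIPR: intracellular cAMP rise after 30 min at 37 °C read by HTRF against a standard curve, scaled between buffer alone (0%) and top control ligand concentration (100%), four-parameter fit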;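 on Relative cAMP EC50, hGLP-1R: intracellular cAMP rise after 30 min at 37 °C read by HTRF, normalized between buffer only (0%) and maximal control ligand (100%), four-parameter variable-slope fit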
[5] = in the presence of 0.1% casein (no HSA), geometric mean
[6] = 0.1% casein, no HSA, geometric mean
[7] = in the presence of 0.1% casein (no HSA), geometric mean of relative EC50
[8] = HEK-293 clonal cell line, 1% HSA, geometric mean of relative EC50

human GcgR, sequence (P47871 26-477): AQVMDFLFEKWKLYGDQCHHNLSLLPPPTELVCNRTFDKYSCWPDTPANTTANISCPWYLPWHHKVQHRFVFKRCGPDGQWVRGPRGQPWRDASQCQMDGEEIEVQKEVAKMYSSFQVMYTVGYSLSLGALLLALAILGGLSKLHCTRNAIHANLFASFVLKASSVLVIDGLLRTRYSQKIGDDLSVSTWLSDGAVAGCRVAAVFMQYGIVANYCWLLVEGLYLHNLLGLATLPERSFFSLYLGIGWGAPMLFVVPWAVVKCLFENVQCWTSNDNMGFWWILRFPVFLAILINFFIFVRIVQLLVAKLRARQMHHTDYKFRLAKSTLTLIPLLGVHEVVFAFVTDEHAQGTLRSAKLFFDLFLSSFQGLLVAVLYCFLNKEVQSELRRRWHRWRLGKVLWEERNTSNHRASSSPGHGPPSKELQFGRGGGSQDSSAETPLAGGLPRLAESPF
hGcgR, sequence (P47871 26-477): as above
T1 sequence (P43220 24-463): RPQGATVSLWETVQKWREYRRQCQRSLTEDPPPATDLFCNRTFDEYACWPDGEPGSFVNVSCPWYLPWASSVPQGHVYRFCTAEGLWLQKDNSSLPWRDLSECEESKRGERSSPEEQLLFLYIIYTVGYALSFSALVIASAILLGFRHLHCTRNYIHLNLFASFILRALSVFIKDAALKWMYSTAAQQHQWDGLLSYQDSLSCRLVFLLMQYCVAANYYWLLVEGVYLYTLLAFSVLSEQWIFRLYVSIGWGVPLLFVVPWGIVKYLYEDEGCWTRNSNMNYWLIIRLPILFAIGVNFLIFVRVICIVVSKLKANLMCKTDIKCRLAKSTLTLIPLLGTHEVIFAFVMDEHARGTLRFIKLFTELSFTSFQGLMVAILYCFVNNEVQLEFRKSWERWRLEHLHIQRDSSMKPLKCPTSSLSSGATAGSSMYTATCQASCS

Row | EC50 (hGcgR) | EC50 (hGLP-1R [1]) | EC50 (hGIPR [4]) | Compound | EC50 (human GcgR) | EC50 (hGIPR [2]) | EC50 (hGLP-1R [3]) | also measured
1 | 17.1 nM | 2.14 nM | 0.308 nM | H-Y[Aib]QGT[αMePhe(2-F)]TSD[4Pal]SI[αMeL]LD[Orn]K([AEEA-γGlu-C18 diacid])AQ[αMe4Pal][Orn]FI[dE][αMeY]LEEGGPSSGEPPPEGT-NH2 [Example 506] | 2330 nM | 28.7 nM | 224 nM | 
2 |  |  |  | Y[Aib]QGTFTSDFS[Orn][αMeL]LDKK([AEEA-γGlu-C18 diacid])AQ[Aib]AFIEWLLEGGHSSGAPPPGGE-NH2 [Example 273] | 1770 nM | 21.8 nM | 516 nM | EC50 (hGcgR; [5]): 6.96 nM; EC50 (hGLP-1R [1]; [5]): 4.02 nM; EC50 (hGIPR [4]; [5]): 0.243 nM
3 |  |  |  | H-Y[Aib]QGT[αMePhe(2-F)]TSD[4Pal][αMeS]I[αMeL]LD[Orn]K([AEEA-γGlu-C18 diacid])AQ[αMe4Pal]EFI[dE][αMeY]LIEGGPPS[Aib][Orn]PPPSGGGE-NH2 [Example 1199] | 352 nM | 0.733 nM | 63.9 nM | EC50 (hGcgR; [6]): 2.05 nM; EC50 (hGLP-1R [1]; [6]): 0.5 nM; EC50 (hGIPR [4]; [6]): 0.0076 nM
4 |  |  |  | H-Y[Aib]QGTFTSDFS[Orn][αMeL]LDKK([AEEA-γGlu-C18 diacid])AQ[Aib]AFIEYLLEGGPSSGAPP[Hyp]GGS-NH2 [Example 237] | 441 nM | 30.9 nM | 291 nM | EC50 (hGcgR; [5]): 3.77 nM; EC50 (hGLP-1R [1]; [5]): 3.4 nM; EC50 (hGIPR [4]; [5]): 0.228 nM
5 | 5.03 nM | 0.388 nM | 0.0336 nM | H-Y[Aib]QGT[αMePhe(2-F)]TSD[4Pal][αMeS]I[αMeL]LD[Orn]K([γGlu-γGlu-C18 diacid])AQ[Aib][Orn]FI[dE][αMeY]LTEGGPSSGEPPPSGTE-NH2 [Example 542] | 256 nM | 1.69 nM | 29.6 nM | 
6 |  |  |  | CC[C@H](C)[C@H](NC(=O)[C@H](Cc1ccccc1)NC(=O)[C@H](CCCN)NC(=O)C(C)(C)NC(=O)[C@H](CCC(N)=O)NC(=O)[C@H](C)NC(=O)[C@H](CCCCNC(=O)COCCOCCNC(=O)CC[C@H](NC(=O)CCCCCCCCCCCCCCCCC(=O)O)C(=O)O)NC(=O)[C@H](CCCN)NC(=O)[C@H](CC(=O)O)NC(=O)[C@H](CC(C)C)NC(=O)[C@](C)(CC(C)C)NC(=O)[C@@H](NC(=O)[C@H](CO)NC(=O)[C@H](Cc1ccncc1)NC(=O)[C@H](CC(=O)O)NC(=O)[C@H](CO)NC(=O)[C@@H](NC(=O)[C@](C)(Cc1ccccc1F)NC(=O)[C@@H](NC(=O)CNC(=O)[C@H](CCC(N)=O)NC(=O)C(C)(C)NC(=O)[C@@H](N)Cc1ccc(O)cc1)[C@@H](C)O)[C@@H](C)O)[C@@H](C)CC)C(=O)N[C@H](CCC(=O)O)C(=O)N[C@@](C)(Cc1ccc(O)cc1)C(=O)N[C@@H](CC(C)C)C(=O)N[C@@H](CC(C)C)C(=O)N[C@@H](CCC(=O)O)C(=O)NCC(=O)NCC(=O)N1CCC[C@H]1C(=O)N[C@@H](CO)C(=O)N[C@@H](CO)C(=O)NCC(=O)N[C@@H](CCC(=O)O)C(=O)N1CCC[C@H]1C(=O)N1CCC[C@H]1C(=O)N1CCC[C@H]1C(=O)N[C@@H](CO)C(N)=O [Example 367] | 668 nM | 4.89 nM | 30.1 nM | EC50 (hGcgR; [5]): 7.95 nM; EC50 (hGLP-1R [1]; [5]): 0.421 nM; EC50 (hGIPR [4]; [5]): 0.0215 nM
7 |  |  |  | H-Y[Aib]QGTFTSDFSK[αMeL]LDKK([AEEA-γGlu-C18 diacid])AQ[Aib]AFIEYLLEGGPSSGAPPPSEG[AEEA]-NH2 [Example 56] | 265 nM | 30.3 nM | 167 nM | EC50 (hGcgR; [5]): 2.8 nM; EC50 (hGLP-1R [1]; [5]): 4.07 nM; EC50 (hGIPR [4]; [5]): 0.315 nM
8 | 6.37 nM | 0.528 nM | 0.0723 nM | H-Y[Aib]QGT[αMePhe(2-F)]TSD[4Pal][αMeS]ILLD[Orn]K([γGlu-γGlu-C18 diacid])AQ[Aib][Orn]FI[dE]YLIEGGPSSGEPPPSGTEE-NH2 [Example 576] | 646 nM | 8.12 nM | 56.8 nM | 
9 | 1.22 nM | 0.204 nM | 0.0164 nM | H-Y[Aib]QGT[αMePhe(2-F)]TSD[4Pal][αMeS]I[αMeL]LD[Orn]K([AEEA-γGlu-C18 diacid])AQ[Aib][Orn]FI[dE][αMeY]LIEGGPSSGEPEPSEG-NH2 [Example 481] | 100 nM | 1.19 nM | 14.2 nM | 
10 | 2 nM | 0.302 nM | 0.00784 nM | H-Y[Aib]QGT[αMePhe(2-F)]TSD[4Pal][αMeS]I[αMeL]LD[Orn]K([AEEA-γGlu-C18 diacid])AQ[αMe4Pal]EFI[dE][αMeY]LVEGGPSSGEPPPSGE-NH2 [Example 750] | 205 nM | 1.34 nM | 39.1 nM | 
11 |  |  |  | H-Y[Aib]QGT[αMePhe(2-F)]TSD[4Pal][αMeS]I[αMeL]LD[Orn]K([AEEA-γGlu-C18 diacid])AA[Aib]EFI[dE][αMeY]LIEGGPSSGAPPPSGEE-NH2 [Example 703] |  |  |  | EC50 (hGcgR; [7]): 1.56 nM; EC50 (hGLP-1R [1]; [7]): 0.233 nM; EC50 (human GcgR; [8]): 201 nM; EC50 (hGIPR [2]; [8]): 0.961 nM; EC50 (hGLP-1R [3]; [8]): 27.1 nM; EC50 (hGIPR [4]; [7]): 0.0101 nM
12 | 5.04 nM | 0.499 nM | 0.235 nM | H-Y[Aib]QGT[αMePhe(2-F)]TSD[4Pal][αMeS]ILLD[Orn]K([γGlu-γGlu-C18 diacid])AQ[Aib][Orn]FI[dE][αMeY]LQEGGPSSGEPPPEGAEE-NH2 [Example 574] | 435 nM | 20.5 nM | 37.2 nM | 

Row | Compound | EC50 (hGcgR) | EC50 (hGLP-1R [1]) | EC50 (hGIPR [4]) | EC50 (human GcgR) | EC50 (hGIPR [2]) | EC50 (hGLP-1R [3]) | also measured
13 | CC[C@H](C)[C@H](NC(=O)[C@H](CCCCN)NC(=O)[C@H](CC(=O)O)NC(=O)[C@H](CC(C)C)NC(=O)[C@H](CC(C)C)NC(=O)[C@@H](NC(=O)[C@H](CO)NC(=O)[C@H](Cc1ccc(O)cc1)NC(=O)[C@H](CC(=O)O)NC(=O)[C@H](CO)NC(=O)[C@@H](NC(=O)[C@](C)(Cc1ccccc1F)NC(=O)[C@@H](NC(=O)CNC(=O)[C@H](CCC(N)=O)NC(=O)C(C)(C)NC(=O)[C@@H](N)Cc1ccc(O)cc1)[C@@H](C)O)[C@@H](C)O)[C@@H](C)CC)C(=O)N[C@@H](C)C(=O)N[C@@H](CCC(N)=O)C(=O)NC(C)(C)C(=O)N[C@@H](C)C(=O)N[C@@H](Cc1ccccc1)C(=O)N[C@H](C(=O)N[C@@H](CCCCNC(=O)COCCOCCNC(=O)CC[C@H](NC(=O)CCCCCCCCCCCCCCCCC(=O)O)C(=O)O)C(=O)N[C@@H](Cc1ccc(O)cc1)C(=O)N[C@@H](CC(C)C)C(=O)N[C@@H](CCC(=O)O)C(=O)N[C@@H](CCC(=O)O)C(=O)NCC(=O)NCC(=O)N1CCC[C@H]1C(=O)N[C@@H](CO)C(=O)N[C@@H](CO)C(=O)NCC(=O)N[C@@H](C)C(=O)N1CCC[C@H]1C(=O)N1CCC[C@H]1C(=O)N1CCC[C@H]1C(=O)N[C@@H](CO)C(N)=O)[C@@H](C)CC [Example 430] (H-Y[Aib]QGT[αMePhe(2-F)]TSDYSILLDKIAQ[Aib]AFIK([AEEA-γGlu-C18 diacid])YLEEGGPSSGAPPPS-NH2; N-terminus assumed) | 2.11 nM | 0.438 nM | 0.0144 nM | 559 nM | 4.65 nM | 78.9 nM | 
14 | H-Y[Aib]QGT[αMePhe(2-F)]TSD[4Pal]SILLDKK([γGlu-γGlu-C18 diacid])AQ[Aib]AFIEYLEEGGPSSGAPPPSGSEE-NH2 [Example 610] | 5.75 nM | 1.66 nM | 0.133 nM | 536 nM | 7.02 nM | 130 nM | 
15 | H-Y[Aib]QGT[αMePhe(2-F)]TSD[4Pal][αMeS]I[αMeL]LD[Orn]K([AEEA-γGlu-C18 diacid])AA[Aib]EFI[dE][αMeY]LLEGGPSSGAPPPSGS-NH2 [Example 672] | 1.19 nM | 0.389 nM | 0.014 nM | 162 nM | 1.53 nM | 49.4 nM | 
16 | H-Y[Aib]QGT[αMePhe(2-F)]TSD[4Pal][αMeS]I[αMeL]LD[Orn]K([AEEA-γGlu-C18 diacid])AQ[αMe4Pal]EFI[dE][αMeY]LIEGGPSSGAPPPSGSEE-NH2 [Example 713] | 1.71 nM | 0.331 nM | 0.00928 nM | 180 nM | 0.879 nM | 37.7 nM | 
17 | H-Y[Aib]QGT[αMePhe(2-F)]TSD[4Pal]SILLDKK([γGlu-γGlu-C18 diacid])AQ[Aib]AFIEYLEEGGPSSGAPPPSGTEE-NH2 [Example 609] | 6.46 nM | 1.07 nM | 0.0784 nM | 647 nM | 6.19 nM | 121 nM | 
